{"source": "paper PMC7248880", "about": "“Preclinical Incorporation Dosimetry of [^18F]FACH—A Novel ^18F-Labeled MCT1/MCT4 Lactate Transporter Inhibitor for Imaging Cancer Metabolism with PET” (Molecules, 2020)", "key": {"[1]": {"experiment": "Vital sign monitoring after iv injection", "type": "in vivo", "conditions": "iv 156 ± 54 MBq (0.63 ± 0.49 µg), anesthetized piglets", "from_the_text": "The radiation safety of the newly developed MCT1/MCT4-specific radioligand [^18F]FACH was preclinically investigated. […] Afterwards, volumes of interest (VOIs) of the various organs were manually defined using the respective whole-body CT dataset for anatomical orientation. The estimated TIACs were extrapolated to the human entity (Equation (2)), followed by estimation of the organ doses with OLINDA 2.1 and calculation of the effective dose using tissue weighting factors as published in Publication 103 of the International Commission of Radiation Protection (ICRP103). Finally, it can be concluded that [^18F]FACH is safe with respect to the radiation risk that is caused by its systemic application for PET studies. This supports and encourages the translation of this newly developed radiopharmaceutical to clinical study phases.\nThree piglets (age: ~6 weeks, weight: ~13–15 kg) were fasted on the day of imaging and received an intranuscular. injection of 1 mL azaperone and 4 mL ketamine to introduce anesthesia. […] During narcosis, the animals maintained spontaneous respiration and no mandatory ventilation was applied. The subjects were sequentially imaged after an iv injection (contralateral ear vein) of 156 ± 54 MBq [^18F]FACH (0.63 ± 0.49 µg) in a PET/CT system (Biograph16, SIEMENS, Erlangen, Germany). […]"}, "[2]": {"experiment": "Whole-body PET/CT distribution of activity", "type": "in vivo, piglets", "method": "Early accumulation in the bone structures might be related to defluorination. At later time points, activity also accumulated in the gall bladder and the urinary bladder.\nThree piglets (age: ~6 weeks, weight: ~13–15 kg) were fasted on the day of imaging and received an intranuscular. injection of 1 mL azaperone and 4 mL ketamine to introduce anesthesia. […] During narcosis, the animals maintained spontaneous respiration and no mandatory ventilation was applied. The subjects were sequentially imaged after an iv injection (contralateral ear vein) of 156 ± 54 MBq [^18F]FACH (0.63 ± 0.49 µg) in a PET/CT system (Biograph16, SIEMENS, Erlangen, Germany). The piglets were positioned prone with legs alongside the body on a custom-made plastic trough including a piglet head-holder (Figure 5). The PET acquisition was divided into a sequential (4 × 9 min, 3 × 12 min) and a static part (1 × 24 min, 1 × 30 min, 1 × 36 min), each of which was preceded by a low-dose CT to acquire structural data for attenuation correction (AC) and anatomical orientation (Figure 6). Post mortem, the urine was collected by bladder punctuation, weighted, and divided into three 1 mL samples for activity measurements in a gamma-counter (Packard Cobra II 5003 Auto Gamma Counting System, GMI, Ramsey, MN, USA).\nThe image data were analyzed with ROVER (ABX, Radeberg, Germany; v. 3.0.46h). […]"}}, "data": [{"smiles": "CCCN(CCC[18F])c1ccc(/C=C(\\C#N)C(=O)O)c(OC)c1", "note": "[[^18F]FACH, (E)-2-cyano-3-{4-[(3-[^18F]fluoropropyl)(propyl)amino]-2-methoxyphenyl}acrylic acid]", "values": [{"measurement": "adverse effects based on vital sign monitoring", "setting": "[1]", "result": "no adverse effects were observed"}, {"measurement": "distribution of activity (organs with high uptake)", "setting": "[2]; one representative animal, PET at different times p.i.", "result": "high uptake in the liver, pancreas, small intestines, and spleen"}, {"measurement": "route of excretion indicated by PET", "setting": "[2]; rapid uptake in liver, later gall bladder", "result": "hepatobiliary excretion"}]}]}
